Article PMC8799644, “Decisive role of water and protein dynamics in residence time of p38α MAP kinase inhibitors” (Nature Communications, 2022)
Values joined by “and” are separate entries in the source; they are usually repeats but may differ in a detail not shown here. Equal entries are not always repeated. Where two headings read alike, the source gives them in different places.

What was measured:
p38α MAPK [1] = target: T1, p38α MAPK (Homo sapiens, UniProt Q16539); experiment: Cell-based eGFP-MK2 translocation assay, DLD1_eGFP-MK2 cells; set-up: endogenous in cells
Excerpt: (§1) For optical analysis, cells were fixed using 4% PFA/PBS following DAPI staining and subjected to automated high content analysis (HCA) image acquisition using an Image Xpress micro XL microscope (Molecular Devices). 40× Plan Apo objective was used to acquire FITC and DAPI signals at nine sites per well. MetaXpress® Custom Module Editor Software (64 bit, 6.2.3.733, Molecular Devices) was trained for automated image analysis. DAPI signal was used to define nuclear region of interest (ROI) and DAPI-negative cytoplasmic ring for respective cytoplasmic ROI. Non-cellular FITC background signals were subtracted from defined ROIs. Nuclear to cytoplasmic ratios were calculated from cellular fluorescence intensities of eGFP-MK2 reporter within defined ROIs. Cells with ratios within the 10–90 percentiles of all measured cells were taken into account.
Supplementary Figure 1. Cell-based eGFP-MK2 translocation assay: DLD1 cell line.
(A) Schematic overview of the cell-based eGFP-MK2 translocation assay. Active p38a MAPK phosphorylates its nuclear substrate MapKap2 (MK2) which leads to the exposure of the nuclear export signal and results in a cytoplasmic relocalization of MK2. Using a fluorescently labelled eGFP-MK2 as reporter, nuclear-cytoplasmic translocation can be used to monitor p38a MAPK […]
(B) Human DLD1 cell line stably […]
expressing eGFP-MK2 reporter under different treatment conditions.
(1 picture or pasted object on this page, not shown here)
Shown are microscopic images which were subjected to automated high content analysis to measure and calculate nuclear to cytoplasmic ratios of eGFP-MK2 signals providing the basis to evaluate inhibitory potency of p38a MAPK modulating […]
3 independent biological replicates. Scale bar: 50 µm. (C) Inhibition of eGFP-MK2 translocation by the compounds in DLD1_eGFP-MK2 cells. Normalized fluorescence (Fl) intensity ratio of […]
respectively. […] Data are presented as mean ± standard deviation (SD) of three biological replicates. Source data are provided as a Source Data […]
(§2) Supplementary Figure 2. Cell-based eGFP-MK2 translocation assay: HCT116 cell line.
(A) Human HCT116 cell line stably expressing eGFP-MK2 reporter under different treatment

p38α MAPK [2] = target: T1, p38α MAPK; experiment: Fluorescence polarization (Transcreener ADP) jump-dilution target residence time; type: biochemical; conditions: for millipolarization mP: Compound 1 run, replicas 1-3
p38α MAPK [3] = target: T1, p38α MAPK; experiment: Cell-based eGFP-MK2 translocation assay, HCT116_eGFP-MK2 cells; set-up: endogenous in cells
Excerpt: as §1, with “account. […]” for “account.”
as §2
(A) Human HCT116 cell line stably expressing eGFP-MK2 reporter under different treatment […]
nucleus. Upon activation of the MAPK/p38 pathway, eGFP-MK2 is translocated to the cytoplasm […]
microscopic images which were subjected to automated high content analysis to measure and calculate nuclear to cytoplasmic ratios of eGFP-MK2 signals providing the basis to evaluate inhibitory potency of p38a MAPK modulating compounds. […]
sites that were imaged per condition for each of 3 independent biological replicates. Scale bar:
Normalized fluorescence (Fl) intensity ratio of nucleus/cytoplasm.
Data are presented as mean ± SD of three biological replicates. […]

p38α MAPK [4] = target: T1, p38α MAPK; conditions: cited from earlier work
p38α MAP kinase = p38α MAP kinase (Homo sapiens, UniProt Q16539); experiment: ADP-Glo luminescence kinase assay (isolated enzyme); type: biochemical
Procedure: IC50 determinations were performed using the luminescence-based ADP-Glo^TM assay by Promega, which measures kinase activity based on ADP formation. All required reagents were prepared according to manufacturer’s protocol. […] The kinase reaction was started by adding the substrate and ATP. After 60 min incubation time, the reaction was terminated by adding ADP-Glo^TM reagent and an incubation time of 60 min. At last, ADP-Glo TM kinase detection reagent was added and incubated for 30 min. All reactions were carried out on a plate shaker at room temperature. […] The ratio between kinase reaction, ADP-Glo TM reagent and ADP-Glo TM kinase detection reagent was 1:1:2. The positive control consisted of p38α MAP kinase, substrate and buffer. The assay was performed in triplicates. The negative control consisted of all kinase reaction components without enzyme. Luminescence was detected using the plate reader FilterMax F5 by Molecular Devices with subsequent data analysis using GraphPad Prism version 7.0.0. for Windows (GraphPad Software, San Diego, CA, USA).

p38α MAPK [5] = target: T1, p38α MAPK; experiment: HotSpot radiometric kinase assay (Reaction Biology); type: biochemical; conditions: n = 1; 10 μM ATP; read-out: IC50 isolated enzyme p38α MAPK HotSpot
Procedure: Hotspot^TM radiometric assay[49] was conducted by Reaction Biology (Reaction Biology Corp., Malvern, PA, USA). In brief, five-dose singleton measurements were conducted starting from 1 μM compound concentration with a ten-fold serial dilution (lowest concentration of 0.1 nM). ATP concentration of 10 μM was used in the assay.

p38α MAPK [6] = target: T1, p38α MAPK; conditions: n = 2; cited from earlier work

Chain of p38α MAP kinase (Q16539 whole entry): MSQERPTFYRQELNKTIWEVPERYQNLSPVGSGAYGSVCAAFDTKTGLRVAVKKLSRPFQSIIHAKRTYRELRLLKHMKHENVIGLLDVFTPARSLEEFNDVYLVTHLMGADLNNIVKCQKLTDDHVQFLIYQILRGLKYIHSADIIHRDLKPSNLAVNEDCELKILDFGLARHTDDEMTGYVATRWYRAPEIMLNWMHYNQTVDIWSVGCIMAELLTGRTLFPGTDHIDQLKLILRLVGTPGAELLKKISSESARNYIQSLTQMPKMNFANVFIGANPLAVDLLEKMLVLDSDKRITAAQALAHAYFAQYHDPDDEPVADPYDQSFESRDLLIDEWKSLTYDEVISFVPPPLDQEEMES
T1 sequence (Q16539 whole entry): as above

norm. FI (nucleus/ cytoplasm) (p38α MAPK [1]; DLD1_eGFP-MK2, conc. 100 pM): 0.794 | norm. FI (nucleus/ cytoplasm) (p38α MAPK [1]; DLD1_eGFP-MK2, conc. 1e-9 M): 0.8106 | norm. FI (nucleus/ cytoplasm) (p38α MAPK [1]; DLD1_eGFP-MK2, conc. 3e-9 M): 0.8345 | norm. FI (nucleus/ cytoplasm) (p38α MAPK [1]; DLD1_eGFP-MK2, conc. 3e-8 M): 0.9192 | norm. FI (nucleus/ cytoplasm) (p38α MAPK [1]; DLD1_eGFP-MK2, conc. 1e-7 M): 0.9569 | norm. FI (nucleus/ cytoplasm) (p38α MAPK [1]; DLD1_eGFP-MK2, conc. 1e-6 M): 1.002 | norm. FI (nucleus/ cytoplasm) (p38α MAPK [1]; DLD1_eGFP-MK2, conc. 1e-5 M): 1.014 | norm. FI (nucleus/ cytoplasm) (p38α MAPK [1]; DLD1_eGFP-MK2, conc. 1e-5 M (last column, after 1e-10)): 0.8162 | IC50 (p38α MAPK [1]; DLD1_eGFP-MK2 cells, 1 h compound, n = 3, read-out: IC50 cell-based MK2 translocation DLD1): 25.6 nM | millipolarization mP (p38α MAPK [2]; Time 15 min): 250.23 mP and 238.61 mP and 252.02 mP | millipolarization mP (p38α MAPK [2]; Time 20 min): 235.80 mP and 229.96 mP and 227.02 mP | millipolarization mP (p38α MAPK [2]; Time 25 min): 216.96 mP and 215.61 mP and 220.53 mP | millipolarization mP (p38α MAPK [2]; Time 30 min): 204.83 mP and 208.80 mP and 213.25 mP | millipolarization mP (p38α MAPK [2]; Time 35 min): 199.40 mP and 197.40 mP and 204.19 mP | millipolarization mP (p38α MAPK [2]; Time 40 min): 190.24 mP and 185.07 mP and 187.77 mP | millipolarization mP (p38α MAPK [2]; Time 45 min): 188.70 mP and 189.13 mP and 187.22 mP | millipolarization mP (p38α MAPK [2]; Time 50 min): 189.84 mP and 186.39 mP and 191.23 mP | millipolarization mP (p38α MAPK [2]; Time 55 min): 181.96 mP and 176.31 mP and 180.38 mP | millipolarization mP (p38α MAPK [2]; Time 60 min): 189.85 mP and 181.69 mP and 188.39 mP | millipolarization mP (p38α MAPK [2]; Time 65 min): 179.72 mP and 178.04 mP and 185.39 mP | millipolarization mP (p38α MAPK [2]; Time 70 min): 177.53 mP and 176.90 mP and 187.97 mP | millipolarization mP (p38α MAPK [2]; Time 75 min): 176.40 mP and 178.56 mP and 178.94 mP | millipolarization mP (p38α MAPK [2]; Time 80 min): 170.47 mP and 176.86 mP and 179.41 mP | millipolarization mP (p38α MAPK [2]; Time 85 min): 174.74 mP and 171.47 mP and 178.98 mP | millipolarization mP (p38α MAPK [2]; Time 90 min): 181.04 mP and 173.23 mP and 180.81 mP | millipolarization mP (p38α MAPK [2]; Time 95 min): 176.14 mP and 169.30 mP and 175.95 mP | millipolarization mP (p38α MAPK [2]; Time 100 min): 170.48 mP and 168.26 mP and 169.78 mP | millipolarization mP (p38α MAPK [2]; Time 105 min): 171.74 mP and 175.00 mP and 171.83 mP | millipolarization mP (p38α MAPK [2]; Time 110 min): 170.01 mP and 167.74 mP and 170.08 mP | millipolarization mP (p38α MAPK [2]; Time 115 min): 166.92 mP and 166.97 mP and 168.10 mP | millipolarization mP (p38α MAPK [2]; Time 120 min): 173.62 mP and 170.72 mP and 174.62 mP | millipolarization mP (p38α MAPK [2]; Time 125 min): 170.41 mP and 162.47 mP and 172.42 mP | millipolarization mP (p38α MAPK [2]; Time 130 min): 163.64 mP and 172.89 mP and 166.09 mP | millipolarization mP (p38α MAPK [2]; Time 135 min): 165.07 mP and 173.17 mP and 167.48 mP | millipolarization mP (p38α MAPK [2]; Time 140 min): 163.17 mP and 162.11 mP and 161.18 mP | millipolarization mP (p38α MAPK [2]; Time 145 min): 163.48 mP and 161.58 mP and 158.43 mP | millipolarization mP (p38α MAPK [2]; Time 150 min): 162.36 mP and 163.56 mP and 167.43 mP | millipolarization mP (p38α MAPK [2]; Time 155 min): 167.52 mP and 168.31 mP and 165.22 mP | millipolarization mP (p38α MAPK [2]; Time 160 min): 157.97 mP and 163.71 mP and 167.13 mP | millipolarization mP (p38α MAPK [2]; Time 170 min): 171.90 mP and 157.15 mP and 163.48 mP | millipolarization mP (p38α MAPK [2]; Time 175 min): 163.57 mP and 163.80 mP and 163.61 mP | millipolarization mP (p38α MAPK [2]; Time 180 min): 166.27 mP | TRT (p38α MAPK [2]; individual replicas 1-3): 317 s and 109 s and 270 s | TRT [sec] mean (p38α MAPK [2]; mean of 3 replicas): 232 s | residence time (p38α MAPK [2]; mean ± SD, n = 3, 1/koff, jump dilution 1:100, 40 μM ATP, ATF2, read-out: Target residence time FP (converted)): 3.87 min | norm. FI (nucleus/ cytoplasm) (p38α MAPK [3]; HCT116_eGFP-MK2, conc. 100 pM): 0.8572 | norm. FI (nucleus/ cytoplasm) (p38α MAPK [3]; HCT116_eGFP-MK2, conc. 1e-9 M): 0.8754 | norm. FI (nucleus/ cytoplasm) (p38α MAPK [3]; HCT116_eGFP-MK2, conc. 3e-9 M): 0.8746 | norm. FI (nucleus/ cytoplasm) (p38α MAPK [3]; HCT116_eGFP-MK2, conc. 1e-8 M): 0.937 | norm. FI (nucleus/ cytoplasm) (p38α MAPK [3]; HCT116_eGFP-MK2, conc. 3e-8 M): 0.9809 | norm. FI (nucleus/ cytoplasm) (p38α MAPK [3]; HCT116_eGFP-MK2, conc. 1e-7 M): 1.0322 | norm. FI (nucleus/ cytoplasm) (p38α MAPK [3]; HCT116_eGFP-MK2, conc. 1e-6 M): 1.03 | norm. FI (nucleus/ cytoplasm) (p38α MAPK [3]; HCT116_eGFP-MK2, conc. 1e-5 M): 1.052 | norm. FI (nucleus/ cytoplasm) (p38α MAPK [3]; HCT116_eGFP-MK2, conc. 1e-5 M (last column, after 1e-10)): 0.8753 | IC50 (p38α MAPK [3]; HCT116_eGFP-MK2 cells, 1 h compound, n = 3, read-out: IC50 cell-based MK2 translocation HCT116): 14.9 nM | IC50 (p38α MAP kinase; mean ± SD, 150 μM ATP, read-out: IC50 isolated enzyme p38α MAPK ADP-Glo (mean)): 31.3 nM and 31 nM | IC50 (p38α MAP kinase; single experiments of source data, read-out: IC50 ADP Glo, individual determination): 35 nM and 40 nM and 19 nM | IC50 (p38α MAPK [5]): < 1 nM
SMILES: O=C(NCCN1CCOCC1)c1ccc2c(c1)C(=O)c1ccc(Nc3ccc(F)cc3F)cc1CC2 [Compound 1]
IC50 (p38α MAPK [4]; mean ± SD, n = 3, read-out: IC50 isolated enzyme p38α MAPK ELISA (mean)): 3.4 nM and 3.35 nM | IC50 (p38α MAPK [4]; single experiments of source data, read-out: IC50 ELISA, individual determination): 3.54 nM and 3.5 nM | Target residence time SPR (p38α MAPK [6]): 36 s
